Where no end group is shown, it is not given here. [ ]: non-standard residue; d: D form.

Assay [1] is described as follows: Fluorescence spectroscopy of labelled peptide with other phospholipids. The format is binding. The conditions noted are these: POPA, DPPG, POPS, cardiolipin. As for the experimental part: 1-palmitoyl-2-oleoyl-sn-glycero-3-phosphocholine (POPC), 1-palmitoyl-2-oleoyl-sn-glycero-3-phosphate (POPA), 1-palmitoyl-2-oleoyl-sn-glycero-3-phospho-L-serine (POPS), 1-palmitoyl-2-oleoyl-sn-glycero-3-phosphoethanolamine (PE), and 1,2-dipalmitoyl-sn-glycero-3-phospho-(1′-rac-glycerol) (DPPG) were obtained from Avanti Polar Lipids Inc (Alabaster, Ala.).
Changes in the emission intensity of the [atn]SS-02 and the [ald]SS-02 were measured using a Hitachi F-4500 fluorescence spectrophotometer. The different solvents used to dissolve the various phospholipids (chloroform, methanol and ethanol) had negligible effect on the fluorescence spectrum of [atn]SS-02 and [ald]SS-02. All experiments were done in low ionic solution (deionized water) to optimize electrostatic interactions of peptides with phospholipids.

Assay [2] deals with cytochrome c/cardiolipin complex (Equus caballus, UniProt P00004). Put plainly: Soret circular dichroism of cytochrome c with cardiolipin. The format is biochemical. To be noted: 10 μM cytochrome c. The protocol: Circular dichroism (CD) was carried out to examine the effects of the peptides on protecting the heme environment of cytochrome c from the acyl chain of CL. For heme proteins, the Soret CD spectrum is strictly correlated with the heme pocket conformation. In particular, the negative 416-420 nm Cotton effect is considered diagnostic of Fe(III)-Met80 coordination in native cytochrome c (Santucci and Ascoli, 1997). […] CD spectra were obtained using AVIV CD Spectrometer Model 410.
Changes in the Soret CD spectrum of cytochrome c (10 μM) were recorded in the absence (dotted line) and presence (dashed line) of 30 μg/ml CL, plus addition of different peptides (10 μM) (solid line) (FIG. 14). CD measurements were carried out using 20 mM HEPES, pH 7.5, at 25° C. and expressed as molar ellipticity (A) (m Deg). […] Accordingly, aromatic-cationic peptides of the present disclosure are useful for the prevention or treatment of diseases or disorders characterized by dysregulation of cardiolipin and/or cytochrome c, and/or diseases or disorders characterized by dysregulation of the cardiolipin/cytochrome c interaction. In addition, aromatic-cationic peptides of the present disclosure are useful to protect the heme environment of cytochrome c from the acyl chain of cardiolipin.
Circular Dichroism (CD) spectra were collected with an AVIA 62 DS spectrophotometer equipped with a sample temperature controller. CD spectra of the Soret region (370-450 nm) were recorded with 10-mm path length cells containing 20 mM Hepes, pH 7.4, and 10 μM cytochrome c, in the presence or absence of 30 μg/ml cardiolipin and different SS peptide analogs (SS-02, [atn]SS-02, [ald]SS-02, and SS-31). The maximum lipid concentration was kept low to avoid spectral distortions due to excessive light scattering. All measurements were done at 25° C. All spectra were corrected for background, and the final spectrum shown represents the average of at least three experiments.
Background: Circular dichroism is widely used to follow secondary structure.

Assay [3] concerns the target cardiolipin-cytochrome c complex (Equus caballus, UniProt P00004). Briefly: Cytochrome c reduction in the presence of cardiolipin. The format is biochemical. As for the experimental part: Reduction of cytochrome c (20 μM) was induced by the addition of glutathione (500 μM) in the absence or presence of CL (100 μg/ml) (FIG. 15A). Reduction of cytochrome c was monitored by absorbance at 550 nm using a 96-well UV-VIS plate reader (Molecular Devices). Addition of CL decreased the rate of cytochrome c reduction by half.
The time course of cytochrome c reduction by ascorbate was recorded at 550 nm and 570 nm using a 96-well plate reader (Molecular Devices, Sunnyvale, Calif.). For all reactions, cytochrome c was preincubated with cardiolipin in the presence or absence of SS peptides for 1 min. […] Ascorbate (50 μM) was added to initiate the reduction of cytochrome c, and the absorbance was recorded for 5 min. The rate of reduction was calculated based on slope of the change in absorbance intensity of 550 nm over 570 nm.

Another assay deals with cytochrome c/CL complex (Equus caballus, UniProt P00004). Put plainly: Peroxidase activity of cytochrome c/cardiolipin complex (Amplex Red). Format: biochemical. The conditions noted are these: 10 μM peptide; 2 μM cytochrome c; cardiolipin 100 μg/ml. The source says:
The six coordination of the heme in cytochrome c prevents direct interaction of H2O2 with the catalytic metal site, and native cytochrome c in solution is a poor peroxidase. Upon interaction with CL, cytochrome c undergoes a structural change with rupture of the Fe-Met80 coordination. […] The mechanism of action of cytochrome c peroxidase is similar to that of other peroxidases, such as horse radish peroxidase (HRP). Thus it is possible to use the amplex red-HRP reaction to investigate cytochrome c peroxidase activity. In the presence of peroxidase, amplex red (AR) reacts with H2O2 to form the red-fluorescent oxidation product, resorufin (Ex/Em=571/585).
Cytochrome c (2 μM) was mixed with CL (25 μg/ml) and 10 μM H2O2 in 20 mM HEPES, pH 7.4. Amplex red (50 μM) was then added and fluorescence emission monitored in real time using Hitachi F4500 fluorescence spectrophotometer. Addition of amplex red elicited rapid increase in fluorescence signal due to resorufin formation, providing direct evidence for peroxidase activity of cytochrome c/CL complex (FIG. 19A).
Assessment of cytochrome c peroxidase activity was achieved using the Amplex® Red assay (Invitrogen/Life Technologies, Carlsbad, Calif.). Amplex® Red is a reagent that reacts with H2O2 in a 1:1 stoichiometry to produce highly fluorescent resorufin (λex/λem=570/585) in the presence of a peroxidase. In this assay, cytochrome c is added in place of horseradish peroxidase. 2 μM cytochrome c was incubated with cardiolipin or cardiolipin-POPC liposomes (10 μg/ml) for 1 min in 20 mM HEPES (pH 7.4) or deionized water prior to the addition of 50 μM Amplex® Red reagent and 10 μM H2O2, and the reaction was allowed to proceed for an additional 5 minutes. The continuous time course data were obtained using Hitachi F-4500 fluorescence spectrophotometer. When comparing the different SS peptide analogs (10 μM) in inhibiting peroxidase activity cytochrome c (2 μM) in the presence of cardiolipin (100 μg/ml), a microplate spectrofluorometer (Molecular Devices, Sunnyvale, Calif.) was used. Horseradish peroxidase (HRP) was used for comparison, and the HRP concentration (0.001 U/ml) was optimized to match the rate of Amplex® Red peroxidation by cardiolipin-cytochrome c complex.

Assay [4] deals with cytochrome c and cardiolipin (Equus caballus, UniProt P00004). Briefly: Oxidation of ferrous cytochrome c by cardiolipin (A550). Format: biochemical. To be noted: 20 μM cytochrome c reduced by 50 μM ascorbic acid; 100 μg/ml cardiolipin. As for the experimental part: Cytochrome c (20 μM) was reduced by 50 μM ascorbic acid until all available functionally active cytochrome c was reduced. The reduction of cytochrome c was monitored by the appearance of a peak at 550 nm in its absorbance spectrum (Molecular Devices, Sunnyvale, Calif.). […] The rate of oxidation was calculated based on slope of the change in absorbance intensity of 550 nm over 570 nm.

The next assay deals with cytochrome c (Equus caballus, UniProt P00004). Put plainly: Cytochrome c reduction kinetics (absorption spectroscopy). The conditions noted are these: glutathione (GSH) as reducing agent; absorbance at 550 nm. Format: biochemical. The protocol:
Increasing amounts of aromatic-cationic peptides were added to a solution of oxidized cytochrome c. The formation of reduced cytochrome c was monitored by absorbance at […]. The rate of cytochrome c reduction was determined by non-linear analysis (Prizm software).
Time-resolved UV-Visible absorption spectroscopy was used to study the electron transport process of cytochrome c in the presence of peptides. Reduced cytochrome c was monitored by absorbance at a broad-band spectral range (200-1100 nm). The absorption changes were recorded with a UV/Visible spectrophotometer (Ultrospec 3300 pro, GE) in quartz cells with path lengths of 1 or 2 mm. N-acetylcysteine (NAC) and glutathione were used as electron donors to reduce oxidized cytochrome c. The rate constant of cytochrome c reduction was estimated by adding various concentrations of peptides. The dose dependence of the peptides was correlated to the cytochrome c reduction kinetics.
Absorption spectroscopy (UltroSpec 3300 Pro; 220-1100 nm) was used to determine if SS-31 modulates cytochrome c reduction (FIG. 1). Reduction of cytochrome c with glutathione is associated with multiple shifts in the Q band (450-650 nm), with a prominent shift at 550 nm. […] Accordingly, the aromatic-cationic peptides of the present disclosure are useful for altering the structure and oxidation state of cytochrome c, and are useful for the prevention or treatment of diseases or disorders characterized by dysregulation of cytochrome c.
Reduction of cytochrome c was monitored by increase in absorbance at 550 nm. […] Similar results were obtained using N-acetylcysteine (NAC) as a reducing agent (not shown). […] Accordingly, aromatic-cationic peptides of the present disclosure are useful for the prevention or treatment of diseases or disorders characterized by dysregulation of cytochrome c and are useful for facilitating cytochrome c reduction.

Assay [5] deals with isolated rat kidney mitochondria. Briefly: O2 consumption in isolated mitochondria. The format is biochemical. The conditions noted are these: 400 μM ADP. As for the experimental part: (§1) Fresh mitochondria were isolated from rat kidney as described previously. Electron flux was measured by O2 consumption (Oxygraph Clark electrode) as previously described using different substrates for C1 (glutamate/malate), C2 (succinate), and C3 (TMPD/ascorbate). Assays were carried out under low substrate conditions in order to avoid saturating the enzyme reactions. ATP production in isolated mitochondria was determined kinetically using the luciferase method (Biotherma) in a 96-well luminescence plate reader (Molecular Devices). The initial maximal rate for ATP synthesis was determined over the first minute.
Oxygen consumption of isolated rat kidney mitochondria was determined using the Oxygraph (FIG. 5). Rates of respiration were measured in the presence of different concentrations of SS-31 in state 2 (400 μM ADP only), state 3 (400 μM ADP and 500 μM substrates) and state 4 (substrates only). All experiments were done in triplicate with n=4−7. […] Accordingly, aromatic-cationic peptides of the present disclosure are useful for promoting electron transfer to oxygen without uncoupling mitochondria, increasing O2 consumption, and treating diseases or conditions related to dysregulation of O2 consumption in mitochondria.
(§2) SS-20 or SS-31 was added at 100 μM concentrations to isolated mitochondria in respiration buffer containing 0.5 mM succinate (complex II substrate) and 400 μM ADP. Similar increases in O2 consumption were observed when low concentrations of complex I substrates (glutamate/malate) were used (data not shown). […] Accordingly, targeting SS-20 and SS-31 to the IMM can facilitate electron flux in the electron transport chain and improve ATP synthesis, especially under conditions of reduced substrate supply.
SS-20 or SS-31 was added at 10 μM or 100 μM concentrations to isolated mitochondria in respiration buffer containing glutamate/malate (complex I substrate), 0.5 mM succinate (complex II substrate) or 3 μM TMPD/1 mM ascorbate (direct reductant of cytochrome c). 400 μM ADP was added to initiate State 3 respiration.

Another assay relates to isolated mitochondria. Briefly: ATP synthesis in isolated mitochondria. Format: biochemical, rat. To be noted: mitochondria energized with low concentrations of succinate. The protocol: as §1
The rate of mitochondrial ATP synthesis was determined by measuring ATP in respiration buffer collected from isolated mitochondria 1 min after addition of […] (FIG. 6). ATP was assayed by HPLC. All experiments were carried out in triplicate, with n=3. […] Accordingly, aromatic-cationic peptides of the present disclosure are useful for increasing ATP synthesis in mitochondria and for treating diseases or disorder characterized by dysregulation of ATP synthesis.
as §2
Increase in electron flux in the electron transport chain can either result in increase in ATP synthesis or increase in electron leak and generation of free radicals. ATP synthesis in isolated mitochondria was assayed by HPLC. […] Accordingly, aromatic-cationic peptides of the present disclosure are useful for increasing ATP synthesis in mitochondria and for treating diseases or disorder characterized by dysregulation of ATP synthesis.

cytochrome c/cardiolipin complex, sequence (P00004 2-105 limits assumed, one chain of several): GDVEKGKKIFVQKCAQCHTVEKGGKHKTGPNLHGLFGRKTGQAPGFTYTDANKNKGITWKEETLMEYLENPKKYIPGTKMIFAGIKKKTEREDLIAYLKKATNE
cardiolipin-cytochrome c complex, sequence (P00004 2-105 limits assumed, one chain of several): as above
cytochrome c and cardiolipin, sequence (P00004 2-105 limits assumed): as the sequence (P00004 2-105 limits assumed, one chain of several) above
cytochrome c, sequence (P00004 2-105 limits assumed): as the sequence (P00004 2-105 limits assumed, one chain of several) above
cytochrome c/CL complex, sequence (P00004 2-105 limits assumed, one chain of several): as above

With 2′,6′-Dmt-D-Arg-Phe-Lys-NH2 [SS-02], the “specificity of peptide-phospholipid interaction” value in assay [1] is “specific for phospholipids with anionic headgroups”. In assay [2] (30 μg/ml cardiolipin, peptide 1:1 with cytochrome c, pH 7.4), the “loss of the negative Cotton peak at 419 nm caused by cardiolipin” value is reported as “prevented”. In assay [3] (40 μM peptide, 20 μM cytochrome c, 100 μg/ml cardiolipin, 50 μM ascorbate, 10% with cardiolipin alone), the “rate of cytochrome c reduction in the presence of cardiolipin” value was “about 60%”. Also, the “peroxidation rate of cytochrome c” value at cytochrome c/CL complex is on record as “about 70 % of control”. Further, in assay [4], the “oxidation of cytochrome c by cardiolipin (loss of the 550 nm peak)” value is on record as “inhibition of cytochrome c oxidation”.

As to F[dR]FK-NH2 [SS-20], the “rate (kinetics) of cytochrome c reduction” value on cytochrome c was “accelerate the kinetics of cytochrome c reduction”. Moreover, the “O2 consumption in state 3 respiration” value in assay [5] (10 μM or 100 μM peptide, complex I or complex II substrates or TMPD/ascorbate) is given as “increases O2 consumption in state 3 respiration”. Moreover, the “electron flux measured by O2 consumption” value in assay [5] (100 μM peptide, 0.5 mM succinate) is listed as “promote electron flux”. Also, in the assay on isolated mitochondria, the “rate of ATP production” value is on record as “significant increase in the rate of ATP production”. In addition, the “protection against CL-induced disappearance of negative Cotton effect” value in assay [2] (30 μg/ml CL, 10 μM peptide, 20 mM HEPES pH 7.5, 25° C.) is recorded as “Protect the Heme Environment of Cytochrome c from the Acyl Chain of CL”. Moreover, the “CL inhibition of cytochrome c reduction” value in assay [3] (500 μM GSH) is recorded as “prevented CL inhibition of cytochrome c reduction”.
